Key:
Experiment in all cases: KINOMEscan
Type in all cases: binding
[1] = target: T1, ABL1(E255K)-phosphorylated (Homo sapiens, UniProt P00519, E255K)
T1 construct: purchased Eurofins DiscoverX, LLC; host or cells: E. coli BL21-derived (T7 phage) or HEK-293

[2] = target: T2, ACVR1B (Homo sapiens, UniProt P36896)
T2 construct: purchased Eurofins DiscoverX, LLC; host or cells: E. coli BL21-derived (T7 phage) or HEK-293
T2 sequence (P36896 24-505): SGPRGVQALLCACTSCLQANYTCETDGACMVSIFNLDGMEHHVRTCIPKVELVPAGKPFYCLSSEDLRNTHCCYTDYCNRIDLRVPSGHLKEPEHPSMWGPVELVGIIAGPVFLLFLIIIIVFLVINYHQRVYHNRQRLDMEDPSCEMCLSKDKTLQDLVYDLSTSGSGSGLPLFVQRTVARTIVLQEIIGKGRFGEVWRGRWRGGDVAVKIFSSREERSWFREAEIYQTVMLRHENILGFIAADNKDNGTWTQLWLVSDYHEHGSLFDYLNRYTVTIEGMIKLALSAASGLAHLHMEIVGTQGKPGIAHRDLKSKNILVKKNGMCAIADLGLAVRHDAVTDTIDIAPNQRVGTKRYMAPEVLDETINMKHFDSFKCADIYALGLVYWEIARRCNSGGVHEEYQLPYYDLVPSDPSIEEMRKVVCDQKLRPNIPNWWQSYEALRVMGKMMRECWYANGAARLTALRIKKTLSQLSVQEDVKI

[3] = target: T3, BRAF(V600E) (Homo sapiens, UniProt P15056, V600E)
T3 construct: purchased Eurofins DiscoverX, LLC; host or cells: E. coli BL21-derived (T7 phage) or HEK-293

[4] = target: T4, CSF1R (Homo sapiens, UniProt P07333)
T4 construct: purchased Eurofins DiscoverX, LLC; host or cells: E. coli (T7 phage) or HEK-293

[5] = target: T5, DYRK1B (Homo sapiens, UniProt Q9Y463)
T5 construct: purchased Eurofins DiscoverX, LLC; host or cells: E. coli (T7 phage) or HEK-293

[6] = target: T6, EPHA2 (Homo sapiens, UniProt P29317)
T6 construct: purchased Eurofins DiscoverX, LLC; host or cells: E. coli (T7 phage) or HEK-293

[7] = target: T7, MET (Homo sapiens, UniProt P08581)
T7 construct: purchased Eurofins DiscoverX, LLC; host or cells: E. coli (BL21-derived, T7 phage) or HEK-293

[8] = target: T8, MKNK1 (Homo sapiens, UniProt Q9BUB5)
T8 construct: purchased Eurofins DiscoverX, LLC; host or cells: E. coli (BL21-derived, T7 phage) or HEK-293

[9] = target: T9, PRKCE (Homo sapiens, UniProt Q02156)
T9 construct: purchased Eurofins DiscoverX, LLC; host or cells: E. coli BL21-derived host (T7 phage) or HEK-293
T9 sequence (Q02156 1-737): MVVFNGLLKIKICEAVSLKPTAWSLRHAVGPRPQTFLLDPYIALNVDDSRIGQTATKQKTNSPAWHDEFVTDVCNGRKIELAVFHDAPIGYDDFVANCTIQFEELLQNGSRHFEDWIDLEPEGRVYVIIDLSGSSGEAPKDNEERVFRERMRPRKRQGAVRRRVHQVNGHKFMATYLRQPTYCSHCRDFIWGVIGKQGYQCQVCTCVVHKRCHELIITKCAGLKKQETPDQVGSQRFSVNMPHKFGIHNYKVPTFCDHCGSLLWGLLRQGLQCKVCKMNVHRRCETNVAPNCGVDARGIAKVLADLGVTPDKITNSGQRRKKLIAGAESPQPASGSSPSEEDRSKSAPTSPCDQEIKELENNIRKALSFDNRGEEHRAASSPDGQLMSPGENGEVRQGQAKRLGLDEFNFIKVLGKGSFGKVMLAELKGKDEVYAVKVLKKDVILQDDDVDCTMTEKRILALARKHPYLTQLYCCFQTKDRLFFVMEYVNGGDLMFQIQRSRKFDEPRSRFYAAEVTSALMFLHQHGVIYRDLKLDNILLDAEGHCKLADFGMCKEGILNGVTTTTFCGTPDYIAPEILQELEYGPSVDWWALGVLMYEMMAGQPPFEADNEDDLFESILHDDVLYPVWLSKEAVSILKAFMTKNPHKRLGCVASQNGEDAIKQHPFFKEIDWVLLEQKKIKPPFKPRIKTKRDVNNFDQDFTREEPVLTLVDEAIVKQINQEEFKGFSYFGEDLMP

[10] = target: T10, SRC (Homo sapiens, UniProt P12931)
T10 construct: purchased Eurofins DiscoverX, LLC; host or cells: E. coli BL21-derived host (T7 phage) or HEK-293
T10 sequence (P12931 whole entry): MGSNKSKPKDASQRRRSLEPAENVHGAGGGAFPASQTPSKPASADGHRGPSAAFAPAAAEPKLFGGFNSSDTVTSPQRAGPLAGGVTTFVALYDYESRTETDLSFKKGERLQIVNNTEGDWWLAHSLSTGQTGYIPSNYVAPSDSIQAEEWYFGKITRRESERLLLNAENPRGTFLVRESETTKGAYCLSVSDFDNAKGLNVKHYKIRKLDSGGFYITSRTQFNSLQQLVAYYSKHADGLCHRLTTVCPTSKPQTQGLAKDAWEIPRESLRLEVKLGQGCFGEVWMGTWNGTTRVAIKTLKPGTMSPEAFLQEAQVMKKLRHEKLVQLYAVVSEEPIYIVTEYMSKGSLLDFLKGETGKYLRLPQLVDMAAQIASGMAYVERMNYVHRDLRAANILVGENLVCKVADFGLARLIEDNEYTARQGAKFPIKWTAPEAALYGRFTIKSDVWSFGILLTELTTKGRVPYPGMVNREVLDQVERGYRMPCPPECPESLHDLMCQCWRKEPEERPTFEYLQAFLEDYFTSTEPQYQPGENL

T1 sequence (P00519 whole entry E255K): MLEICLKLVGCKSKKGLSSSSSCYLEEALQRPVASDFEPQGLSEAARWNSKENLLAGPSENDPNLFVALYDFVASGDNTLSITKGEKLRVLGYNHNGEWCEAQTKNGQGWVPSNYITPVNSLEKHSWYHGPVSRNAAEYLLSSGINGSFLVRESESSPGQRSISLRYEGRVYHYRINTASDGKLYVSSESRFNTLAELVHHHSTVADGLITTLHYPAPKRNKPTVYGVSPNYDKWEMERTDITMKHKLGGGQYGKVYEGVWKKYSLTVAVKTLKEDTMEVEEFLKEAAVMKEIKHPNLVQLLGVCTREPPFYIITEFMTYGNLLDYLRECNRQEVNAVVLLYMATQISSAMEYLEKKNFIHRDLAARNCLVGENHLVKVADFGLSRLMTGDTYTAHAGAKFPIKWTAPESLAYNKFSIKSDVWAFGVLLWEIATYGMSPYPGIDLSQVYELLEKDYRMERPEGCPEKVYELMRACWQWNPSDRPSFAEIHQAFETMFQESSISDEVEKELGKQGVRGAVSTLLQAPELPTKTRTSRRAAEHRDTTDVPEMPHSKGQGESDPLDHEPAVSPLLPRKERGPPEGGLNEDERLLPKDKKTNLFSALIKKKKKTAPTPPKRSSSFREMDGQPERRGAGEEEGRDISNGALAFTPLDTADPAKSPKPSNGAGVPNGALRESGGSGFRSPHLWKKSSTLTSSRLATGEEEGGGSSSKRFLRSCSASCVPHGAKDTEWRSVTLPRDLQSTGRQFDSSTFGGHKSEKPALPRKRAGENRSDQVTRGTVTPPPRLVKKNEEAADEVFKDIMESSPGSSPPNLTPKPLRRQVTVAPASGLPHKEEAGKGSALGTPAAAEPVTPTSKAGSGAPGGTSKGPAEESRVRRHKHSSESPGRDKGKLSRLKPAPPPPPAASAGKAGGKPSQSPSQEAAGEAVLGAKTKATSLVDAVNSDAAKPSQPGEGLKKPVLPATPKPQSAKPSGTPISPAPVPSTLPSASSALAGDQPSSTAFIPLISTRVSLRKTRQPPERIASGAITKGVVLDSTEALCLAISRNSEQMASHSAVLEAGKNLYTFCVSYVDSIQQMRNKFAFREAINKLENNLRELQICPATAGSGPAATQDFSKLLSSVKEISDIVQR
T8 sequence (Q9BUB5 whole entry): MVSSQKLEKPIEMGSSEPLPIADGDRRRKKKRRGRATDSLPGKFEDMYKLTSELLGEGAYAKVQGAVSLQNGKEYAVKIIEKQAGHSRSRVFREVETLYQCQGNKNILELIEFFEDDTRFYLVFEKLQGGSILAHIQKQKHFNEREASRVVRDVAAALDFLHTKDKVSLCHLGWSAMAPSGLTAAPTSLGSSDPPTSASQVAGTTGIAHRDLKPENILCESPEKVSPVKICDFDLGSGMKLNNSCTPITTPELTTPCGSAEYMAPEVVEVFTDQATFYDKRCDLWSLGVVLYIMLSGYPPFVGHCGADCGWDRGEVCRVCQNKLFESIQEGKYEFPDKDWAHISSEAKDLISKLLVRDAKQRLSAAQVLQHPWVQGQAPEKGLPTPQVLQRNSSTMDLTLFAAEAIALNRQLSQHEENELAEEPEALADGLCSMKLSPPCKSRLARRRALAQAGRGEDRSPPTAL
T3 sequence (P15056 whole entry V600E): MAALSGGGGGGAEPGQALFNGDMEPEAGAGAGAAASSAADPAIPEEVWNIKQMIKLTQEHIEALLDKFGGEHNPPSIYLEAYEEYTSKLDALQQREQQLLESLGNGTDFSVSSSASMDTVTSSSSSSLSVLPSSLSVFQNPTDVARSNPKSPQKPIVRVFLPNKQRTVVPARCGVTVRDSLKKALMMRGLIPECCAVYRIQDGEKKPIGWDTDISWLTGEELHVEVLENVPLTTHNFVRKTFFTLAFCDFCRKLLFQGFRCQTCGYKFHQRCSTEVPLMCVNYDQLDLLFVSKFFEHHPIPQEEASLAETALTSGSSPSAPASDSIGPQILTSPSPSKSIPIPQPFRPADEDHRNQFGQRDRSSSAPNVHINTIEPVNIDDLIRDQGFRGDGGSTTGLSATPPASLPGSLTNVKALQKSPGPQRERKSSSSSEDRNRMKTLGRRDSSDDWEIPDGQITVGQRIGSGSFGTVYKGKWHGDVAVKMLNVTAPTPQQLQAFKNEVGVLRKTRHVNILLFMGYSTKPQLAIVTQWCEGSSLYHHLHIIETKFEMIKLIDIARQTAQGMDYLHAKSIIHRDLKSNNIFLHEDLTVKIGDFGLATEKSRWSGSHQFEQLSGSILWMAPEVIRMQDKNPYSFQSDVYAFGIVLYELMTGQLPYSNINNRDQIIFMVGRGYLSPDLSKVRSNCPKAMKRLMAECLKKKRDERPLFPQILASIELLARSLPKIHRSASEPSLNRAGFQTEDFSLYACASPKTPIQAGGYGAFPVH
T4 sequence (P07333 20-972): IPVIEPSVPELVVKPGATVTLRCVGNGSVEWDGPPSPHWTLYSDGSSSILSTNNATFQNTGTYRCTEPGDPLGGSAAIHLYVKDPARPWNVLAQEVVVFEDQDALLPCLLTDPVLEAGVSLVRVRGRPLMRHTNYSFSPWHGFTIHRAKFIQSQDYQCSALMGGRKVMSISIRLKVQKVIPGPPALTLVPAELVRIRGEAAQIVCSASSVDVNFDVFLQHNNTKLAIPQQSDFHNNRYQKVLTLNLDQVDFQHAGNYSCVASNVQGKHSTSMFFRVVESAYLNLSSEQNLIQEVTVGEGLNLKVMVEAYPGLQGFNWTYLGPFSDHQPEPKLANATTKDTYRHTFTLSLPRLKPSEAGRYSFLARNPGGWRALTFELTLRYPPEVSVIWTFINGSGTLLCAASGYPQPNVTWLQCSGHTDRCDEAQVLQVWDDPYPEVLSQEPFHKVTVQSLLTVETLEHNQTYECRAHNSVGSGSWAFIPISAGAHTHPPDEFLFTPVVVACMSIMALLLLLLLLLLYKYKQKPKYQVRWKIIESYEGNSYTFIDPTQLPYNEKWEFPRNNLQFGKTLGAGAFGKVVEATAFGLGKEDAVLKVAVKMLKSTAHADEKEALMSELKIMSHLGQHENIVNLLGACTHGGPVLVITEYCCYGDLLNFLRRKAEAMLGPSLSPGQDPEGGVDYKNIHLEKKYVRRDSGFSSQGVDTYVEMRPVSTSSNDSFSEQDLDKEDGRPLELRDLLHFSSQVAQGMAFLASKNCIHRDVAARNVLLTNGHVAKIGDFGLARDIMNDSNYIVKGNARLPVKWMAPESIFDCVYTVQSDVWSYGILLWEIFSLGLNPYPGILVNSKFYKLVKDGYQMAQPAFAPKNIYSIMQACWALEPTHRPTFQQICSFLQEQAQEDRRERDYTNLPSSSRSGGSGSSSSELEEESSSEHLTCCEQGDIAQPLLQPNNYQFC
T6 sequence (P29317 24-976): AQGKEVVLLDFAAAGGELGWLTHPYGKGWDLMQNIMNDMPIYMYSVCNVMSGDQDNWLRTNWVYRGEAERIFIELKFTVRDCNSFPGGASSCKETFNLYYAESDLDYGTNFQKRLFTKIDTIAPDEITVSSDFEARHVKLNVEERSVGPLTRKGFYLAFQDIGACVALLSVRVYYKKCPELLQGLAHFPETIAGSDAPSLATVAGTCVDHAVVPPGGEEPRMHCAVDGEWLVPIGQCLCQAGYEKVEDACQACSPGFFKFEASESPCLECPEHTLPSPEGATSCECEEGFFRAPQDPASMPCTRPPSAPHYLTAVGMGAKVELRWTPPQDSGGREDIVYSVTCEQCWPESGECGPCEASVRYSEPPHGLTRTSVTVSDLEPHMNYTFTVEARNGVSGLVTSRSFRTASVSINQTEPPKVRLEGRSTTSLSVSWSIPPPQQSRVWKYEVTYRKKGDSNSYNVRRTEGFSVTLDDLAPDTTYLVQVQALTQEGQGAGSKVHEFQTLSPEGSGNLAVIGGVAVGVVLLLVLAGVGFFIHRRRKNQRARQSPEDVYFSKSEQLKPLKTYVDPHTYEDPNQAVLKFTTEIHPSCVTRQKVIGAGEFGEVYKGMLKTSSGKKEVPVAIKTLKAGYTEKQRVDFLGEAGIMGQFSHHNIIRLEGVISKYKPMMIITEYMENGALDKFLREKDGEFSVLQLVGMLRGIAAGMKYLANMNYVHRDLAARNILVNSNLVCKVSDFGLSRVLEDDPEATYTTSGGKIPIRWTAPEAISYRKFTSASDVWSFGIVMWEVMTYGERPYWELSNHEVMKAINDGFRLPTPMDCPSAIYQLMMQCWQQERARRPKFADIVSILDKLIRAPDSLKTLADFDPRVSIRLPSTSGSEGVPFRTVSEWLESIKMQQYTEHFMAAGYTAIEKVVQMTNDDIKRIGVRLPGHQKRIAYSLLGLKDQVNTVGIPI

Row | Structure (SMILES) | RA @ 1000nM [1] | RA @ 10000nM [1] | RA @ 1000nM [2] | RA @ 10000nM [2] | RA @ 1000nM [3] | RA @ 10000nM [3] | RA @ 1000nM [4] | RA @ 10000nM [4] | RA @ 1000nM [5] | RA @ 10000nM [5] | RA @ 1000nM [6] | RA @ 10000nM [6] | RA @ 1000nM [7] | RA @ 10000nM [7] | RA @ 1000nM [8] | RA @ 10000nM [8] | RA @ 1000nM [9] | RA @ 10000nM [9] | RA @ 1000nM [10] | RA @ 10000nM [10]
1 | CN(C)CCNC(=O)c1cc2c(cnn2CC2CCCCC2)cc1Cc1ccc(F)cc1F [Compound 95, 1-(Cyclohexylmethyl)-5-(2,4-difluorobenzyl)-N-(2-(dimethylamino)ethyl)-1H-indazole-6-carboxamide] | 96% | 93% | 100% | 100% | 98% | 100% | 100% | 79% | 95% | 100% | 100% | 100% | 100% | 100% | 100% | 100% | 79% | 76% | 100% | 93%
2 | CC(C)Cn1ncc2cc(Cc3ccc(F)cc3F)c(C(=O)NCCN(C)C)cc21 [Compound 94, 5-(2,4-Difluorobenzyl)-N-(2-(dimethylamino)ethyl)-1-isobutyl-1H-indazole-6-carboxamide] | 96% | 55% | 100% | 100% | 100% | 100% | 100% | 86% | 100% | 85% | 97% | 100% | 96% | 100% | 100% | 100% | 80% | 80% | 100% | 94%

From paper PMC12406203 (Journal of Medicinal Chemistry, 2025)
